Results published in article PMC13210772, “Dual FLT3/MAPK14 Proteolysis-Targeting Chimera (PROTAC) Induces Potent Acute Myeloid Leukemia Cell Death” (Pharmaceuticals, 2026).

How the values were obtained:
ULK1 = target: T1, ULK1 (Homo sapiens, UniProt O75385); test: NanoBRET CELLinib128; assay type: binding; conditions: 1 µM; 100% no effect, 0% complete tracer displacement
T1 construct: Full-length kinase ORF (Promega, Madison, WI, USA) cloned in frame with a NanoLuc-vector; host or cells: HEK293T
T1 sequence (O75385 whole entry): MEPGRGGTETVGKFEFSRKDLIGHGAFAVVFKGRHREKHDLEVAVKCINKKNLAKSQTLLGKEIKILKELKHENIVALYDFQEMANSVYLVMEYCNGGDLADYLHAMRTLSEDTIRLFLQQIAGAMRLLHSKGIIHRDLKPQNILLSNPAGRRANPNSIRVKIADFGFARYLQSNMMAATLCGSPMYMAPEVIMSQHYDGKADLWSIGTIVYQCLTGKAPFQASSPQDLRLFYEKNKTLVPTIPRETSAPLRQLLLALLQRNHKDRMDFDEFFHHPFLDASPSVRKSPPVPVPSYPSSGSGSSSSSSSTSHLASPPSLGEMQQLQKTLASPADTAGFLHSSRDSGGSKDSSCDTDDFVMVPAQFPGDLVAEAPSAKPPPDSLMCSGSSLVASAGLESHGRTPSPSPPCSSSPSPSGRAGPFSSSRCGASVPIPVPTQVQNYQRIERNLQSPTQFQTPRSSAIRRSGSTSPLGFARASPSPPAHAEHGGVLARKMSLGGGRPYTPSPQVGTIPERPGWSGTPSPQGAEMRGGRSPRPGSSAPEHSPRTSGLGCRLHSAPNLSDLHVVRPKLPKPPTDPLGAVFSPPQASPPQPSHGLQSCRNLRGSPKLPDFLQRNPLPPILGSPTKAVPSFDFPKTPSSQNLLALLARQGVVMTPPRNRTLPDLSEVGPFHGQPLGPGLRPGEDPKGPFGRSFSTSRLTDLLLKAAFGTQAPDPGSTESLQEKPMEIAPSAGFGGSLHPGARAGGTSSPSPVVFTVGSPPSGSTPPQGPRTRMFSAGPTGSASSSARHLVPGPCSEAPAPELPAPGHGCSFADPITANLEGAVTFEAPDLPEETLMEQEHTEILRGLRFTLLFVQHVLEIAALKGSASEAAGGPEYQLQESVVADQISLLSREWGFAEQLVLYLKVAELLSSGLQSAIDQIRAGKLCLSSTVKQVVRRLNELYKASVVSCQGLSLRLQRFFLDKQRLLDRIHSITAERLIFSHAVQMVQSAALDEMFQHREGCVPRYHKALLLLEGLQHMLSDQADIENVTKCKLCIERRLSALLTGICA
In short: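 Intracellular binding was assessed as displacement of a kinase tracer by 1 μM compound in HEK293T cells carrying full-length NanoLuc-kinase fusions (20 h expression; 2 h, 37 °C equilibration), with BRET normalized to controls.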

MAPK14 [1] = target: T2, MAPK14 (Homo sapiens, UniProt Q16539); test: MAPK14 degradation, immunoblot in leukemia cells; assay type: cell-based; design: endogenous in cells; host or cells: K562, RS4-11, MV4-11, MOLM-13 (A17); MV4-11 (A20); conditions: K562, RS4-11, MV4-11 and MOLM-13 cells; 50 nM MA191, 24 h
T2 sequence (Q16539 2-360 limits assumed): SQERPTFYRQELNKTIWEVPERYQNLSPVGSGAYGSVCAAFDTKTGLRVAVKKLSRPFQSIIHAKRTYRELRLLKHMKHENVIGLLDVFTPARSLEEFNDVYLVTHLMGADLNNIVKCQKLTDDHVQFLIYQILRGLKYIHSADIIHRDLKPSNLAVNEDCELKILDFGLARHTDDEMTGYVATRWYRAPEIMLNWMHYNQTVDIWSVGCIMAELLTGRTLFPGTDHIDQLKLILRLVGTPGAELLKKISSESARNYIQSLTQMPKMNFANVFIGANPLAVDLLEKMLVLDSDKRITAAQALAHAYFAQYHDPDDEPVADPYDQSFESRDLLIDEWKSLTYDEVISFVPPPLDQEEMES

MAPK14 [2] = target: T2, MAPK14; test: Phosphorylation of MAPK14, immunoblot in MV4-11 cells; assay type: cell-based; design: endogenous in cells; host or cells: K562, RS4-11, MV4-11, MOLM-13 (A17); MV4-11 (A20)
FLT3-ITD = target: T3, FLT3-ITD (Homo sapiens, UniProt P36888, INS600HVDFREYEYD); test: Phosphorylation of FLT3-ITD, immunoblot in MV4-11 cells; assay type: cell-based; design: We treated MV4-11 cells with the synthesized degraders of FLT3; endogenous in cells; host or cells: MV4-11
T3 sequence (P36888 with tags, fused parts or gaps INS600HVDFREYEYD): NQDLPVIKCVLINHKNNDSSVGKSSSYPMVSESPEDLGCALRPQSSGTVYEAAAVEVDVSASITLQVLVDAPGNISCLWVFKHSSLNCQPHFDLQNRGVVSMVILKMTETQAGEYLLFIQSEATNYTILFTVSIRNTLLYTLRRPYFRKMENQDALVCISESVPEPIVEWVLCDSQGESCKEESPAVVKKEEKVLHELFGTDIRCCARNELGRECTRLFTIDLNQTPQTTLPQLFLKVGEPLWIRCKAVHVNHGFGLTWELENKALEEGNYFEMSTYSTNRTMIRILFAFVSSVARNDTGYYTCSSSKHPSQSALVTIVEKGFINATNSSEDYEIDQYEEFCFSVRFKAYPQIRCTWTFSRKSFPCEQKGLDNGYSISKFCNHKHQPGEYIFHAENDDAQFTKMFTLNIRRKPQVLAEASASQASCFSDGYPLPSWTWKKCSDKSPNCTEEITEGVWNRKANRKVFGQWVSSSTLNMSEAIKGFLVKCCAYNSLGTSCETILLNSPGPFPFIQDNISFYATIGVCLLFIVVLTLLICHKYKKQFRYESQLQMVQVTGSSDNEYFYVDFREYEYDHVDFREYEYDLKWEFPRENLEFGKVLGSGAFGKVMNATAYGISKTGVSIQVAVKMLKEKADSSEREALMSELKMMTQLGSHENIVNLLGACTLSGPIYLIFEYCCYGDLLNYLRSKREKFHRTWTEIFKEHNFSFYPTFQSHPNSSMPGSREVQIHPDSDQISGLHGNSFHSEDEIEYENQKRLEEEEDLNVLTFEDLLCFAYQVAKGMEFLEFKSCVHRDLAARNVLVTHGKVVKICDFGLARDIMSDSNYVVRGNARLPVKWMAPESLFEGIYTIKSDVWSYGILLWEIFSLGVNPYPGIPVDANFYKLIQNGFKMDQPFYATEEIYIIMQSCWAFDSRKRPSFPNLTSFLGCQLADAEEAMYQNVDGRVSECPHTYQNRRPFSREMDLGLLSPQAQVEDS
Text: We aimed to delineate if the FLT3 inhibitor part of MA191 acts as a MAPK14 inhibitor in MV4-11 cells. We used the phosphorylation of FLT3-ITD and the phosphorylation of MAPK14 as markers for their activation. […] This finding is consistent with the detection of MAPK14 in the kinase selectivity profiling approach (Figure 3; MAPK14 is termed p38α therein).
Figure 7 Targeting MAPK14 augments anti-leukemic effects of an inhibition of FLT3-ITD. (a) The graphs show the mRNA levels of MAPK14 in leukemia cells and normal blood cells. […] All immunoblots show data from at least two independent repetitions. (c) Model for how inhibition of various signaling pathways affects AML cells (red, cytoplasm, blue, nucleus).

Tracer bound (ULK1) [%] | MAPK14 protein level, immunoblot (MAPK14 [1]) | phosphorylated MAPK14 (p-MAPK14) (MAPK14 [2]) | SMILES | phosphorylation of FLT3-ITD (FLT3-ITD)
117.4 | – | – | CNC(=O)c1cc(Oc2ccc(NC(=O)Nc3cc(C(C)(C)C)on3)cc2)ccn1 [MA68, reference compound] | –
– | depleted MAPK14 | loss of p-MAPK14 together with MAPK14 | Cc1ncsc1-c1ccc([C@H](C)NC(=O)[C@@H]2C[C@@H](O)CN2C(=O)[C@@H](NC(=O)[C@H]2CC[C@H](C(=O)N3CCN(CCNC(=O)c4cc(Oc5ccc(NC(=O)Nc6cc(C(C)(C)C)on6)cc5)ccn4)CC3)CC2)C(C)(C)C)cc1 [MA191, 4-(4-(3-(5-(tert-Butyl)isoxazol-3-yl)ureido)phenoxy)-N-(2-(4-(trans-4-(((S)-1-((2S,4R)-4-hydroxy-2-(((S)-1-(4-(4-methylthiazol-5-yl)phenyl)ethyl)carbamoyl)pyrrolidin-1-yl)-3,3-dimethyl-1-oxobutan-2-yl)carbamoyl)cyclohexanecarbonyl)piperazin-1-yl)ethyl)picolinamide] | inhibited the phosphorylation of FLT3-ITD
